From PMC6875038, “Comparative Pharmacokinetic Studies of Four Ginsenosides in Rat Plasma by UPLC-MS/MS after Oral Administration of Panax quinquefolius-Acorus gramineus and Panax quinquefolius Extracts” (Journal of Analytical Methods in Chemistry, 2019)
Read-outs that look alike come from different tables or passages of the source.

Columns and labels:
[1] = Stability of the ginsenosides in rat plasma (QC samples); type: in vitro ADME; conditions: for Re (%) Postpreparation / Recovery (%) Postpreparation: autosampler 4°C for 12 h; for Re (%) Short term / Recovery (%) Short term / Re (%) Freeze-thaw cycles / Recovery (%) Freeze-thaw cycles: rat plasma; for Re (%) Short term / Recovery (%) Short term: 1 month at −80°C; for Re (%) Freeze-thaw cycles / Recovery (%) Freeze-thaw cycles: three freeze-thaw cycles at −80°C
Procedure: The standard stock solution was prepared in methanol with four ginsenosides at the final concentration of 1.14 mg/mL for Rb1, 0.10 mg/mL for Rb2, 0.78 mg/mL for Rd, and 1.58 mg/mL for Re. The working standard solution at required concentration was obtained by continuously diluting the stock solution. The IS stock solution was also prepared with methanol at a final concentration of 720 ng/mL. Calibration samples were prepared by mixing solutions of standard mixture, internal standard, and methanol with rat blank plasma at the final concentrations of 3.6, 7.2, 35.6, 71.2, 142.4, 284.8, 569.5, and 1, 139.0 ng/mL for Rb1, 1.6, 3.2, 6.3, 31.3, 62.5, 125.0, 250.0, and 500.0 ng/mL for Rb2, 1.2, 2.4, 4.9, 24.4, 48.8, 97.6, 195.1, and 390.2 ng/mL for Rd, and 2.5, 4.9, 9.9, 49.3, 98.6, 197.1, 394.3, and 788.5 ng/mL for Re. QC samples were also prepared with the same method at low, middle, and high concentrations (7.2, 142.4, and 911.4 ng/mL for Rb1, 3.2, 62.5, and 400.0 ng/mL for Rb2, 2.4, 48.8, and 312.2 ng/mL for Rd, 5.0, 98.6, and 630.8 ng/mL for Re). All solutions were stored at 4°C. The stability of the four analytes was determined by exposing plasma samples to QC at three concentration levels in six replicates. Samples were stored at −80°C for 1 month to assess the short-term storage stability. Freeze-thaw stability was performed after three freeze-thaw cycles at −80°C during three consecutive days. To evaluate the postpreparative stability, extracted QC samples were kept in the autosampler (4°C) for 12 h before analysis. The stability assessment of these samples was calibrated with freshly prepared standard as previously described.

[2] = Pharmacokinetics of four ginsenosides in rat plasma after oral administration of PQ-AG and PQ extracts (UPLC-MS/MS); type: in vivo; conditions: male SD rats, n = 6, mean ± SD; for AUC: male, SD, po
Procedure: Chromatographic analysis was performed on a Waters Acquity UPLC system (Waters Corp., Milford, MA, USA). An ACQUITY UPLC BEH C18 (100 × 2.1 mm, 1.7 μm) column was used for all analytes. The column temperature was at 35°C. The mobile phase was composed of formic acid aqueous solution (A, 0.1%) and acetonitrile (B) at a gradient elution of 25% B at 0–0.5 min, 25%–50% B at 0.5–2.0 min, 50–60% B at 2.0–5.0 min, 60–25% B at 5.0–5.5 min, and 25% B at 5.5–7.0 min, with a flow rate of 0.2 mL/min.
MS detection was performed using the Xevo Triple Quadruple MS (Waters Corp.) equipped with an ESI source in both positive and negative ionization modes. The experimental parameters were set as follows: CV 2.80 kV; desolvation temperature 350°C; source temperature […]; cone gas flow 50 L/h; and desolvation gas flow 650 L/h. The detection was carried out using the MRM scan mode. All experimental data were collected in centroid mode using Masslynx 4.1 software (Waters Corp., Milford, USA), and postacquisition quantitative analysis was conducted using Target Lynx program (Waters Corp., Milford, USA).
Plasma specimens (200 μL) were mixed with IS solution (20 μL, 720 ng/mL) in an Eppendorf tube and centrifuged at 4, 000 rpm for 15 min at 4°C. Then, the supernatant was removed from plasma sample. Hydrochloric acid (4 μL) was added into 200 μL plasma sample, and then, the mixture was vortexed for 1 min. Waters OASIS HLB SPE C18 columns (Waters, USA) were used to remove the proteins in plasma samples, and it was preactivated by 3 mL methanol and 3 mL water. Then, 2 mL of 100% methanol was used to wash the column, and the eluate was collected and dried under nitrogen gas (45°C). Subsequently, 100 μL of 100% methanol was used to redissolve the residues, followed by centrifugation at 13, 000 rpm for 15 min at 4°C. Before UPLC-MS/MS analysis, the sample was finally filtered through a 0.22 μm membrane filter.
DAS 3.2 software (Mathematical Pharmacology Professional Committee of China, Shanghai, China, 2011) was applied for the analysis of concentration-time data to investigate the pharmacokinetic parameters of four ginsenosides in various groups. Data were presented as the mean ± SD (standard deviation) with triplicate measurements. A significance level was set at P < 0.05.
Male SD rats were randomly and evenly divided into two groups (n = 6 per group) in pharmacokinetic studies. To evaluate the compatible effect of AG upon PQ treatment, rats were given PQ at a dosage of 0.54 g/kg (equivalent to the amount of raw drug 0.54 g) in the PQ group. PQ-AG was combined with an equal proportion to prepare the mixed extract. The oral dosage in rats was 1.08 g/kg (equivalent to the amount of the raw drug including 0.54 g AG and 0.54 g PQ) in the PQ-AG group. Blood samples were collected at specific time points of 0, 0.25, 0.5, 1.0, 1.5, 2.0, 4.0, 6.0, 8.0, 12.0, 16.0, 24.0, and 48.0 h. All the plasma samples were obtained by centrifuging the blood samples at 3, 500 rpm for 10 min, then labeled and frozen at −80°C prior to analysis.

[3] = extracted high QC (911.4 Rb1, 400.0 Rb2, 312.2 Rd, 630.8 Re ng/mL)
[4] = extracted low QC (7.2 Rb1, 3.2 Rb2, 2.4 Rd, 5.0 Re ng/mL)
[5] = extracted middle QC (142.4 Rb1, 62.5 Rb2, 48.8 Rd, 98.6 Re ng/mL)
[6] = high QC (911.4 Rb1, 400.0 Rb2, 312.2 Rd, 630.8 Re ng/mL)
[7] = low QC (7.2 Rb1, 3.2 Rb2, 2.4 Rd, 5.0 Re ng/mL)
[8] = middle QC (142.4 Rb1, 62.5 Rb2, 48.8 Rd, 98.6 Re ng/mL)
[9] = PQ group: oral PQ extract 0.54 g/kg
[10] = PQ-AG group: oral PQ-AG extract 1.08 g/kg
[11] = 0.54 g/kg, PQ group: oral PQ extract 0.54 g/kg, read-out: AUC0⟶t
[12] = 0.54 g/kg, PQ group: oral PQ extract 0.54 g/kg, read-out: AUC0⟶∞
[13] = 1.08 g/kg, PQ-AG group: oral PQ-AG extract 1.08 g/kg, read-out: AUC0⟶t
[14] = 1.08 g/kg, PQ-AG group: oral PQ-AG extract 1.08 g/kg, read-out: AUC0⟶∞

CC(C)=CCC[C@](C)(O[C@@H]1O[C@H](CO[C@@H]2O[C@H](CO)[C@@H](O)[C@H](O)[C@H]2O)[C@@H](O)[C@H](O)[C@H]1O)[C@H]1CC[C@]2(C)[C@@H]1[C@H](O)C[C@@H]1[C@@]3(C)CC[C@H](O[C@@H]4O[C@H](CO)[C@@H](O)[C@H](O)[C@H]4O[C@@H]4O[C@H](CO)[C@@H](O)[C@H](O)[C@H]4O)C(C)(C)[C@@H]3CC[C@]12C [Rb1]
Re (%) Postpreparation [1, 3]: −6.47% | Recovery (%) Postpreparation [1, 3]: 96.10% | Re (%) Postpreparation [1, 4]: 6.86% | Recovery (%) Postpreparation [1, 4]: 101.85% | Re (%) Postpreparation [1, 5]: 9.35% | Recovery (%) Postpreparation [1, 5]: 101.65% | Re (%) Short term [1, 6]: 7.53% | Recovery (%) Short term [1, 6]: 101.65% | Re (%) Freeze-thaw cycles [1, 6]: 7.75% | Recovery (%) Freeze-thaw cycles [1, 6]: 101.95% | Re (%) Short term [1, 7]: −7.55% | Recovery (%) Short term [1, 7]: 96.32% | Re (%) Freeze-thaw cycles [1, 7]: −6.90% | Recovery (%) Freeze-thaw cycles [1, 7]: 97.66% | Re (%) Short term [1, 8]: 7.95% | Recovery (%) Short term [1, 8]: 100.48% | Re (%) Freeze-thaw cycles [1, 8]: −4.48% | Recovery (%) Freeze-thaw cycles [1, 8]: 95.35% | Cmax [2, 9]: 461 ± 15.9 ng/mL | Tmax [2, 9]: 7 ± 1.1 h | half-life [2, 9]: 15.6 ± 1.52 h | Cmax [2, 10]: 600 ± 53.6 ng/mL | Tmax [2, 10]: 6.67 ± 1.03 h | half-life [2, 10]: 18.5 ± 2.61 h | AUC [2, 11]: 5980 ± 313 ng·h/mL | AUC [2, 12]: 6150 ± 328 ng·h/mL | AUC [2, 13]: 8130 ± 454 ng·h/mL | AUC [2, 14]: 8410 ± 488 ng·h/mL

CC(C)=CCC[C@](C)(O[C@@H]1O[C@H](CO[C@@H]2OC[C@H](O)[C@H](O)[C@H]2O)[C@@H](O)[C@H](O)[C@H]1O)[C@H]1CC[C@]2(C)[C@@H]1[C@H](O)C[C@@H]1[C@@]3(C)CC[C@H](O[C@@H]4O[C@H](CO)[C@@H](O)[C@H](O)[C@H]4O[C@@H]4O[C@H](CO)[C@@H](O)[C@H](O)[C@H]4O)C(C)(C)[C@@H]3CC[C@]12C [Rb2]
Re (%) Postpreparation [1, 3]: 7.90% | Recovery (%) Postpreparation [1, 3]: 99.63% | Re (%) Postpreparation [1, 4]: −9.72% | Recovery (%) Postpreparation [1, 4]: 93.37% | Re (%) Postpreparation [1, 5]: 2.39% | Recovery (%) Postpreparation [1, 5]: 99.94% | Re (%) Short term [1, 6]: 7.11% | Recovery (%) Short term [1, 6]: 98.74% | Re (%) Freeze-thaw cycles [1, 6]: 9.36% | Recovery (%) Freeze-thaw cycles [1, 6]: 103.82% | Re (%) Short term [1, 7]: −9.70% | Recovery (%) Short term [1, 7]: 93.67% | Re (%) Freeze-thaw cycles [1, 7]: −9.69% | Recovery (%) Freeze-thaw cycles [1, 7]: 94.21% | Re (%) Short term [1, 8]: −2.12% | Recovery (%) Short term [1, 8]: 95.33% | Re (%) Freeze-thaw cycles [1, 8]: 6.77% | Recovery (%) Freeze-thaw cycles [1, 8]: 100.41% | Cmax [2, 9]: 160 ± 18.8 ng/mL | Tmax [2, 9]: 7.67 ± 0.82 h | half-life [2, 9]: 13.3 ± 1.58 h | Cmax [2, 10]: 264 ± 24.5 ng/mL | Tmax [2, 10]: 7.67 ± 0.82 h | half-life [2, 10]: 15.6 ± 5.21 h | AUC [2, 11]: 1210 ± 99.2 ng·h/mL | AUC [2, 12]: 1230 ± 99.6 ng·h/mL | AUC [2, 13]: 2460 ± 243 ng·h/mL | AUC [2, 14]: 2520 ± 289 ng·h/mL

CC(C)=CCC[C@](C)(O[C@@H]1O[C@H](CO)[C@@H](O)[C@H](O)[C@H]1O)[C@H]1CC[C@]2(C)[C@@H]1[C@H](O)C[C@@H]1[C@@]3(C)CC[C@H](O[C@@H]4O[C@H](CO)[C@@H](O)[C@H](O)[C@H]4O[C@@H]4O[C@H](CO)[C@@H](O)[C@H](O)[C@H]4O)C(C)(C)[C@@H]3CC[C@]12C [Rd]
Re (%) Postpreparation [1, 3]: −7.02% | Recovery (%) Postpreparation [1, 3]: 94.81% | Re (%) Postpreparation [1, 4]: 4.43% | Recovery (%) Postpreparation [1, 4]: 100.10% | Re (%) Postpreparation [1, 5]: 9.98% | Recovery (%) Postpreparation [1, 5]: 101.71% | Re (%) Short term [1, 6]: 7.35% | Recovery (%) Short term [1, 6]: 101.27% | Re (%) Freeze-thaw cycles [1, 6]: 8.12% | Recovery (%) Freeze-thaw cycles [1, 6]: 102.00% | Re (%) Short term [1, 7]: 8.64% | Recovery (%) Short term [1, 7]: 102.66% | Re (%) Freeze-thaw cycles [1, 7]: −11.93% | Recovery (%) Freeze-thaw cycles [1, 7]: 97.24% | Re (%) Short term [1, 8]: 10.24% | Recovery (%) Short term [1, 8]: 103.61% | Re (%) Freeze-thaw cycles [1, 8]: 8.87% | Recovery (%) Freeze-thaw cycles [1, 8]: 100.20% | Cmax [2, 9]: 201 ± 7.3 ng/mL | Tmax [2, 9]: 7.67 ± 0.82 h | half-life [2, 9]: 13.1 ± 2.61 h | Cmax [2, 10]: 283 ± 11.1 ng/mL | Tmax [2, 10]: 6.33 ± 0.82 h | half-life [2, 10]: 14.2 ± 1.98 h | AUC [2, 11]: 3010 ± 230 ng·h/mL | AUC [2, 12]: 3320 ± 317 ng·h/mL | AUC [2, 13]: 3870 ± 356 ng·h/mL | AUC [2, 14]: 3960 ± 383 ng·h/mL
